Data published in PubChem BioAssay AID1963861 (Molecular Pharmacology Branch, DTP, NCI, 2024).
pIC50: −log10 of the molar value.

Test system: 885724-159-R-J1-PDC KRAS PDC multicell spheroid viability
Assay: Anticancer human tumor 885724-159-R-J1-PDC patient-derived pancreatic adenocarcinoma cell line growth inhibition [KRAS2]
Conditions: for pIC50: curve of first compound; for viability, T/C: stronger effect = lower value
Summary of the method: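 KRAS-mutant tumor cells were grown as spheroids with HUVEC endothelial cells and human MSCs as stroma. Targeted agents were tested alone and with KRAS pathway inhibitors. Doses started at or near clinical Cmax, or 10 microM, descending half-log.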

[1] = second compound 0.1 µM, first compound 0.0316 µM
[2] = second compound 0.1 µM, first compound 0.1 µM
[3] = second compound 0.1 µM, first compound 0.316 µM
[4] = second compound 0.1 µM, first compound 1 µM
[5] = second compound 0.1 µM, first compound 3.16 µM
[6] = second compound 0.1 µM, first compound 10 µM
[7] = second compound 0.316 µM, first compound 0.0316 µM
[8] = second compound 0.316 µM, first compound 0.1 µM
[9] = second compound 0.316 µM, first compound 0.316 µM
[10] = second compound 0.316 µM, first compound 1 µM
[11] = second compound 0.316 µM, first compound 3.16 µM
[12] = second compound 0.316 µM, first compound 10 µM
[13] = second compound 1 µM, first compound 0.0316 µM
[14] = second compound 1 µM, first compound 0.1 µM
[15] = second compound 1 µM, first compound 0.316 µM
[16] = second compound 1 µM, first compound 1 µM
[17] = second compound 1 µM, first compound 3.16 µM
[18] = second compound 1 µM, first compound 10 µM
[19] = second compound 3.16 µM, first compound 0.0316 µM
[20] = second compound 3.16 µM, first compound 0.1 µM
[21] = second compound 3.16 µM, first compound 0.316 µM
[22] = second compound 3.16 µM, first compound 1 µM
[23] = second compound 3.16 µM, first compound 3.16 µM
[24] = second compound 3.16 µM, first compound 10 µM
[25] = second compound 10 µM, first compound 0.0316 µM
[26] = second compound 10 µM, first compound 0.1 µM
[27] = second compound 10 µM, first compound 0.316 µM
[28] = second compound 10 µM, first compound 1 µM
[29] = second compound 10 µM, first compound 3.16 µM
[30] = second compound 10 µM, first compound 10 µM
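Also: spheroids exposed to agents for 7 days before readout.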

| Compound | pIC50 (second compound 0.1 µM) | pIC50 (second compound 0.316 µM) | pIC50 (second compound 1 µM) | pIC50 (second compound 3.16 µM) | pIC50 (second compound 10 µM) | viability, T/C [1] [%] | viability, T/C [2] [%] | viability, T/C [3] [%] | viability, T/C [4] [%] | viability, T/C [5] [%] | viability, T/C [6] [%] | viability, T/C [7] [%] | viability, T/C [8] [%] | viability, T/C [9] [%] | viability, T/C [10] [%] | viability, T/C [11] [%] | viability, T/C [12] [%] | viability, T/C [13] [%] | viability, T/C [14] [%] | viability, T/C [15] [%] | further results |
| --- | --- | --- | --- | --- | --- | --- | --- | --- | --- | --- | --- | --- | --- | --- | --- | --- | --- | --- | --- | --- | --- |
| COc1cc(Nc2ncc3c(n2)-c2ccc(Cl)cc2C(c2c(F)cccc2OC)=NC3)ccc1C(=O)O + COc1cc2nc(C)nc(NC(C)c3cc(N)cc(C(F)(F)F)c3)c2cc1OC1CCOC1 | < 5.00 | < 5.00 | < 5.00 | < 5.00 | 7.05 | 110 | 99.3 | 90.9 | 105 | 106 | 108 | 114 | 96.4 | 90.7 | 96.1 | 102 | 105 | 108 | 102 | 101 | viability, T/C [16]: 93.7%; viability, T/C [17]: 108%; viability, T/C [18]: 107%; viability, T/C [19]: 98.8%; viability, T/C [20]: 96.8%; viability, T/C [21]: 92.3%; viability, T/C [22]: 92.5%; viability, T/C [23]: 97.5%; viability, T/C [24]: 114%; viability, T/C [25]: 83.4%; viability, T/C [26]: 45.5%; viability, T/C [27]: 44%; viability, T/C [28]: 45.6%; viability, T/C [29]: 62.9%; viability, T/C [30]: 30.3% |
| COc1cc2nccc(Oc3ccc(NC(=O)C4(C(=O)Nc5ccc(F)cc5)CC4)cc3)c2cc1OC + COc1cc2nc(C)nc(NC(C)c3cc(N)cc(C(F)(F)F)c3)c2cc1OC1CCOC1 | < 5.00 | < 5.00 | 5.33 | 5.76 | > 7.50 | 99.6 | 102 | 104 | 91 | 65.2 | 60 | 96.6 | 93.5 | 93.1 | 80.9 | 65.8 | 54.8 | 97.4 | 93.4 | 76.2 | viability, T/C [16]: 73.9%; viability, T/C [17]: 48.7%; viability, T/C [18]: 44.6%; viability, T/C [19]: 88.8%; viability, T/C [20]: 97.9%; viability, T/C [21]: 89.5%; viability, T/C [22]: 67.6%; viability, T/C [23]: 28.7%; viability, T/C [24]: 31.8%; viability, T/C [25]: 55%; viability, T/C [26]: 17.2%; viability, T/C [27]: 21.5%; viability, T/C [28]: 28.1%; viability, T/C [29]: 0.71%; viability, T/C [30]: 0.34% |
| O=C(c1cc(Cc2n[nH]c(=O)c3ccccc23)ccc1F)N1CCN(C(=O)C2CC2)CC1 + COc1cc2nc(C)nc(NC(C)c3cc(N)cc(C(F)(F)F)c3)c2cc1OC1CCOC1 | < 5.00 | < 5.00 | < 5.00 | < 5.00 | < 5.00 | 129 | 122 | 110 | 113 | 98.2 | 95 | 113 | 106 | 104 | 103 | 98 | 91.5 | 129 | 134 | 132 | viability, T/C [16]: 115%; viability, T/C [17]: 111%; viability, T/C [18]: 91.4%; viability, T/C [19]: 91.4%; viability, T/C [20]: 102%; viability, T/C [21]: 94.8%; viability, T/C [22]: 95.2%; viability, T/C [23]: 91.9%; viability, T/C [24]: 81.7%; viability, T/C [25]: 97%; viability, T/C [26]: 102%; viability, T/C [27]: 98.4%; viability, T/C [28]: 92.5%; viability, T/C [29]: 107%; viability, T/C [30]: 93.3% |
